Read-outs that look alike come from different tables or passages of the source.
Tests used:
[1] = test system: breast tumor (chemically induced breast cancer); assay: Effect on tumor growth (tumor volume, % inhibition); assay type: in vivo, female rats; settings: negative = tumor growth, read from Figure 6
Experimental: For transplantation experiments, recipient syngeneic female rats (6–7 weeks old) were anesthetized with an intramuscular injection of ketamine (8.0 mg/kg dose) and xylazine (10 mg/kg dose). Breast cancer was induced to the investigated rats by chemical induction using […], previously reported techniques. […] The tumor size for all animals was examined using a Vernier caliper (micrometer-Ozaki Ltd., Tokyo, Japan) and calculated using the following Equation (2). TV (mm^3) = 1/2 × Length × Width^2(2)
Thus, the changes in a tumor volume in rats were determined every 5 days for 15 days after administration of the injectable medicated hydrogel (contains a concentration of 100 and 40 mg/kg, respectively, for 5-FU and MTX). The antitumor effect was monitored via measuring both the relative tumor volume (RTV), representing the tumor volume after treatment, using Equation (3). (3) % RTV=(Vt)/(V0)×100 where, Vt represents the tumor volume at each time interval, and V0 is a tumor volume directly after drug injection. The % of tumor volume inhibition was calculated using the following Equation (4). (4) % Inhibition =1−(Vt)/(V0)×100

[2] = In vitro release of 5-FU and MTX from the medicated hydrogel in PBS at 37 °C; assay type: physicochemical; settings: for duration of quantitative release from hydrogel: 0.1% w/v; for drug released from hydrogel within the first day / drug released from hydrogel within the second day: 0.1% w/v drug in hydrogel
Experimental: Several samples (n = 6) of the medicated hydrogel (0.5 g, containing 0.5 mg of each 5-FU and MTX), were placed in 2-mL glass vials and allowed to be incubated at 4 °C for 2 h. Next, one mL of PBS was added above the formulated hydrogel mass and allowed to be incubated in a thermostatic water bath under a shaking rate of 50 rpm at 37 °C. After specific time intervals (each 24 h), 700 µL of the supernatant was withdrawn and replaced immediately with a fresh-prepared PBS, previously incubated at the same temperature to ensure the sink conditions. This process of sample withdrawal and replacing was allowed to continue until the complete clearance or full release of both two incorporated drugs from the hydrogel samples. Thus, the concentration of 5-FU and MTX in the mixture, in each collected sample, was measured simultaneously at 266 nm and 302 nm, respectively, with the aid of the spectrophotometric method, as mentioned before.

[3] = test system: mammary gland tissues; assay: Histopathological examination of tumor masses (H and E); assay type: in vivo, female rats; settings: tumor-bearing rats versus untreated G1
Experimental: Several tissue samples (n = 3) were taken from the tumor masses of the induced mammary glands and were fixed in formalin for 24 h. The fixed samples were processed for the usual histological procedures for hematoxylin and eosin stains, the counter staining of ultra-thin paraffin sections (5 µm; Micro HM 360® Microtome, Marshall Scientific, Hampton Virginia, USA). The stained sections were examined under a light microscope (Olympus B × 46) and were digitally photographed using its connected Olympus DP 21 digital camera (Olympus Corporation, Tokyo, Japan).

[4] = Pharmacokinetic study after intratumoral injection (plasma, HPLC); assay type: in vivo, albino female rats; settings: for Cmax: rat plasma
Experimental: The present in vivo works was performed on albino female rats (weighing 185 ± 15.1 g). The ethical approval of all the experiments was issued by the Faculty of Pharmacy, Al-Azhar University, under no AZ-AS/PH/2/C/2021. The rats were acclimatized at room temperature with a 12-h light/12-h dark cycle. Tumor-induction of 48 female rats were randomly divided into the four independent groups (with n = 12 per each group × triple trials); G1 was the controlled group, which is positive control and were received no any type of medications; G2 received a sole dose of 5-FU saline solution (100 mg/kg); G3 received a combined mixture of 5-FU/MTX saline solution (respectively, 100 and 40 mg/kg); and, finally, G4 received 5-FU/MTX hydrogel. The sole 5-FU and/or combined with MTX doses in normal saline were injected into rats using normal syringes, while the injectable medicated hydrogel doses were injected using a mixing syringe device (Doowon Meditec Corp., Youngin City, Republic of Korea). After finishing the administration processes, blood samples were collected at certain time intervals (0.5, 1, 2, 4, 6, 8, 10, 12, and 14 h). HPLC chromatographic analysis was utilized for the detection of drug concentrations.
One mL of a plasma sample in an Eppendorf tube was initially mixed with phosphate buffer (0.2 mL of 0.5 M at pH 8), after being mixed in a vortex, and an ethyl acetate solution (4.0 mL) was added and mixed in a vortex for 1 min. Then, the contents of the tube were centrifuged at 5000 rpm and temperature 10 °C for 5 min. The organic phase was taken and evaporated until dry, by using a stream of nitrogen gas at 55 °C. The drug mixture in the residue was reconstituted by a solution of potassium dihydrogen phosphate (100 µL of 0.01 M, at pH 4.0), and, then, the resulted solution was filtrated through a 0.2 μm filter syringe, before transferring into autosampler vials of the chromatographic analysis.
A high-performance liquid chromatography, HPLC (Parkin Elmer, JASCO Corporation, Tokyo, Japan), equipped with an autosampler, was used through this study. The detection method was performed using a variable wavelength UV detector, which adjusted at 266 nm for both drugs. The analytical Phenomenex, C18 symmetry RPh-column (4.6 × 250 mm; 5 µm PS) (Cap cell Pak UG120, Shiseido, Tokyo, Japan), was used at 40 °C. The mobile phase was an isocratic mixture (89:11, v/v) of, respectively, methanol and potassium dihydrogen phosphate (10 mM and adjusted to pH 4 with the aid orthophosphoric acid), which was pumped at a flow rate of 1.0 mL/min. The injected volume was 20 µL.
The concentrations of 5-FU and MTX in different rats’ plasma samples (n = 6) were calculated from the corresponding calibration curves equation, developed in the above HPLC method. The plasma concentration-time (Cp/) curve of 5FU/MTX (plasma concentrations; µg/mL in case of using a vehicle of saline, and ng/mL in case of using a vehicle hydrogel) was constructed for both drugs. Next, from the constructed (Cp/t) curves, all the common pharmacokinetic parameters of both drugs were determined using the following Equation (1). […] Moreover, the area under the Cp/t curve (AUC0-24 and AUC0-∞) (ng. h/mL) was measured using the trapezoidal rule to indicate the extent of drug absorption. The peak Cp (Cmax), the time corresponding to the maximum Cp (Tmax), and the half-life, t1/2 (h), were calculated.

[5] = design: method as in PMID 1246307, PMID 18794772, PMID 15018974; settings: cited from earlier work

| SMILES | % Inhibition of tumor volume ([1]; 5 days after treatment) | % Inhibition of tumor volume ([1]; 10 days after treatment) | % Inhibition of tumor volume ([1]; 15 days after treatment) | duration of quantitative release from hydrogel [2] | drug released from hydrogel within the first day [2] | drug released from hydrogel within the second day [2] | completeness of the release profile of 5-FU ([2]; drug concentration 0.1%) | completeness of the release profile of 5-FU ([2]; drug concentration 0.3%) | completeness of the release profile of 5-FU ([2]; drug concentration 0.5%) | histopathological finding in mammary gland tissue [3] | Tmax ([4]; female, rat, plasma, 100 mg/kg, sole administration of 5-FU in saline) | Cmax ([4]; female, 5-FU alone in saline, 100 mg/kg, intratumoral, read-out: Cmax) | time within which in vivo release ended ([4]; free 5-FU solution, 100 mg/kg in saline) | elimination half-life (t1/2) ([4]; free 5-FU solution, first order) | half-life [5] | Cmax ([4]; female, other: intratumoral injection, MTX 40 mg/kg, combined with 5-FU in saline, read-out: Cmax of MTX) |
| --- | --- | --- | --- | --- | --- | --- | --- | --- | --- | --- | --- | --- | --- | --- | --- | --- |
| O=c1[nH]cc(F)c(=O)[nH]1 [5-FU, 5-fluorouracil] | -25% | -90% | -185% | two weeks | 15% | 38% | ≤ 14 days | ≤ 18 days | ≤ 21 days | Only mild improvement | 60 min | 25.2 µg/mL | ≤ 7 h | 30 min | 10 to 20 min | – |
| CN(Cc1cnc2nc(N)nc(N)c2n1)c1ccc(C(=O)N[C@@H](CCC(=O)O)C(=O)O)cc1 [MTX, methotrexate] | – | – | – | two weeks | 40% | 60% | – | – | – | – | – | – | – | – | – | 15.2 µg/mL |
